In patent publication US20160199349A1 (priority 2012, published 2016):
Where “and” joins values, the source holds several entries; their conditions need not be identical. Equal entries are not always repeated.

Assays:
[1] = test system: male albino rats (Sprague Dawley); settings: rat, in vivo, ip
rat = assay: animal or person; format: in vivo

SMILES: CC(C)Cc1ccc(C(C)C(=O)O)cc1 (stereo not drawn) [ibuprofen]
- ED25 (95% CI) [1]: 117 mg/kg and 117 (90.1-196) mg/kg
- ED50 (rat; Rattus norvegicus, ip, 0.5 h, read-out: ED50 (95% CI)): 139 mg/kg
- timepoint of peak effect (rat; rat, in vivo): 30 min p. appl.
